From publication PMC4279406, “Simultaneous targeting of PI3Kδ and a PI3Kδ-dependent MEK1/2-Erk1/2 pathway for therapy in pediatric B-cell acute lymphoblastic leukemia” (Oncotarget, 2014)

How the values were obtained:
Assay in all cases: KinaseProfiler protein kinase activity
Format in all cases: biochemical
Details in all cases: 10 μM X-370
PDK1 = molecular target: T1, PDK1 (Homo sapiens, UniProt O15530)
T1 construct: purchased Millipore KinaseProfiler
Experimental: (§1) In vitro kinase profile assays were analyzed by the Kinase Profiler Service (Millipore, United Kingdom) following its guidelines. A GST-tagged human p110δ and regulatory full-length p85 were co-expressed in insect cell Sf9. Recombinant protein was extracted by affinity purification. The PI3K kinase activity was determined in the increasing concentration of ATP and X-370 with PI3-Kinase HTRF™ Assay kit (Millipore) as described previously. […]
(§2) Table S1: Inhibitory activity of X-370 against protein kinases
(§3) kinome at 10 μM. The relative kianse activity left in the presence of 10 μM were shown (Mi llipore
(§4) Kinase activity (% of control) Kinase activity (% of control) Kinase activity (% of control)
(§5) CDK1/cyclinB 97 Lck activated 89 Ret 125

Itk = molecular target: T2, Itk (Homo sapiens, UniProt Q08881)
T2 construct: purchased Millipore KinaseProfiler
Experimental: as §1, §2, §3, §4, §5

IGF-1R, activated = molecular target: T3, IGF-1R, activated (Homo sapiens, UniProt P08069)
T3 construct: purchased Millipore KinaseProfiler
Experimental: as §1, §2, §3, §4, §5

PKC α = molecular target: T4, PKC α (Homo sapiens, UniProt P17252)
T4 construct: purchased Millipore KinaseProfiler
Experimental: as §1, §2, §3, §4, §5

cKit = molecular target: T5, cKit (Homo sapiens, UniProt P10721)
T5 construct: purchased Millipore KinaseProfiler
Experimental: as §1, §2, §3, §4, §5

MARK1 = molecular target: T6, MARK1 (Homo sapiens, UniProt Q9P0L2)
T6 construct: purchased Millipore KinaseProfiler
Experimental: as §1, §2, §3, §4, §5

NEK11 = molecular target: T7, NEK11 (Homo sapiens, UniProt Q8NG66)
T7 construct: purchased Millipore KinaseProfiler
Experimental: as §1, §2, §3, §4, §5

LKB1 = molecular target: T8, LKB1 (Homo sapiens, UniProt Q15831)
T8 construct: purchased Millipore KinaseProfiler
Experimental: as §1, §2, §3, §4, §5

GSK3 α = molecular target: T9, GSK3 α (Homo sapiens, UniProt P49840)
T9 construct: purchased Millipore KinaseProfiler
Experimental: as §1, §2, §3, §4, §5

FGFR1 = molecular target: T10, FGFR1 (Homo sapiens, UniProt P11362)
T10 construct: purchased Millipore KinaseProfiler
Experimental: as §1, §2, §3, §4, §5

KDR = molecular target: T11, KDR (Homo sapiens, UniProt P35968)
T11 construct: purchased Millipore KinaseProfiler
Experimental: as §1, §2, §3, §4, §5

mTOR/FKBP12 = molecular target: T12, mTOR/FKBP12 (Homo sapiens, UniProt P42345)
T12 construct: purchased Millipore KinaseProfiler
Experimental: as §1, §2, §3, §4, §5

BTK = molecular target: T13, BTK (Homo sapiens, UniProt Q06187)
T13 construct: purchased Millipore KinaseProfiler
Experimental: as §1, §2, §3, §4, §5

ALK = molecular target: T14, ALK (Homo sapiens, UniProt Q9UM73)
T14 construct: purchased Millipore KinaseProfiler
Experimental: as §1, §2, §3, §4, §5

Met = molecular target: T15, Met (Homo sapiens, UniProt P08581)
T15 construct: purchased Millipore KinaseProfiler
Experimental: as §1, §2, §3, §4, §5

IR, activated = molecular target: T16, IR, activated (Homo sapiens, UniProt P06213)
T16 construct: purchased Millipore KinaseProfiler
Experimental: as §1, §2, §3, §4, §5

p70S6K = molecular target: T17, p70S6K (Homo sapiens, UniProt P23443)
T17 construct: purchased Millipore KinaseProfiler
Experimental: as §1, §2, §3, §4, §5

CDK1/cyclinB = molecular target: T18, CDK1/cyclinB (Homo sapiens, UniProt P06493)
T18 construct: purchased Millipore KinaseProfiler
Experimental: as §1, §2, §3, §4, §5

Axl = molecular target: T19, Axl (Homo sapiens, UniProt P30530)
T19 construct: purchased Millipore KinaseProfiler
Experimental: as §1, §2, §3, §4, §5

PKA = molecular target: T20, PKA (Homo sapiens, UniProt P17612)
T20 construct: purchased Millipore KinaseProfiler
Experimental: as §1, §2, §3, §4, §5

PAK2 = molecular target: T21, PAK2 (Homo sapiens, UniProt Q13177)
T21 construct: purchased Millipore KinaseProfiler
Experimental: as §1, §2, §3, §4, §5

ASK1 = molecular target: T22, ASK1 (Homo sapiens, UniProt Q99683)
T22 construct: purchased Millipore KinaseProfiler
Experimental: as §1, §2, §3, §4, §5

Src(1-530) = molecular target: T23, Src(1-530) (Homo sapiens, UniProt P12931)
T23 construct: purchased Millipore KinaseProfiler
Experimental: as §1, §2, §3, §4, §5

CK1(y) = system: CK1(y)
Experimental: as §1, §2, §3, §4, §5

Tie2 = molecular target: T24, Tie2 (Homo sapiens, UniProt Q02763)
T24 construct: purchased Millipore KinaseProfiler
Experimental: as §1, §2, §3, §4, §5

TrkA = molecular target: T25, TrkA (Homo sapiens, UniProt P04629)
T25 construct: purchased Millipore KinaseProfiler
Experimental: as §1, §2, §3, §4, §5

DYRK2 = molecular target: T26, DYRK2 (Homo sapiens, UniProt Q92630)
T26 construct: purchased Millipore KinaseProfiler
Experimental: as §1, §2, §3, §4, §5

SAPK2a(T106M) = molecular target: T27, SAPK2a(T106M) (Homo sapiens, UniProt Q16539, T106M)
T27 construct: purchased Millipore KinaseProfiler
Experimental: as §1, §2, §3, §4, §5

c-RAF = molecular target: T28, c-RAF (Homo sapiens, UniProt P04049)
T28 construct: purchased Millipore KinaseProfiler
Experimental: as §1, §2, §3, §4, §5

PKB α = molecular target: T29, PKB α (Homo sapiens, UniProt P31749)
T29 construct: purchased Millipore KinaseProfiler
Experimental: as §1, §2, §3, §4, §5

Fyn = molecular target: T30, Fyn (Homo sapiens, UniProt P06241)
T30 construct: purchased Millipore KinaseProfiler
Experimental: as §1, §2, §3, §4, §5

FAK = molecular target: T31, FAK (Homo sapiens, UniProt Q05397)
T31 construct: purchased Millipore KinaseProfiler
Experimental: as §1, §2, §3, §4, §5

CHK1 = molecular target: T32, CHK1 (Homo sapiens, UniProt O14757)
T32 construct: purchased Millipore KinaseProfiler
Experimental: as §1, §2, §3, §4, §5

EphA1 = molecular target: T33, EphA1 (Homo sapiens, UniProt P21709)
T33 construct: purchased Millipore KinaseProfiler
Experimental: as §1, §2, §3, §4, §5

IRAK1 = molecular target: T34, IRAK1 (Homo sapiens, UniProt P51617)
T34 construct: purchased Millipore KinaseProfiler
Experimental: as §1, §2, §3, §4, §5

AMPK α1 = molecular target: T35, AMPK α1 (Homo sapiens, UniProt Q13131)
T35 construct: purchased Millipore KinaseProfiler
Experimental: as §1, §2, §3, §4, §5

Lck activated = molecular target: T36, Lck activated (Homo sapiens, UniProt P06239)
T36 construct: purchased Millipore KinaseProfiler
Experimental: as §1, §2, §3, §4, §5

PDGFR α = molecular target: T37, PDGFR α (Homo sapiens, UniProt P16234)
T37 construct: purchased Millipore KinaseProfiler
Experimental: as §1, §2, §3, §4, §5

Pim-1 = molecular target: T38, Pim-1 (Homo sapiens, UniProt P11309)
T38 construct: purchased Millipore KinaseProfiler
Experimental: as §1, §2, §3, §4, §5

PEK = molecular target: T39, PEK (Homo sapiens, UniProt Q9NZJ5)
T39 construct: purchased Millipore KinaseProfiler
Experimental: as §1, §2, §3, §4, §5

ROCK-I = molecular target: T40, ROCK-I (Homo sapiens, UniProt Q13464)
T40 construct: purchased Millipore KinaseProfiler
Experimental: as §1, §2, §3, §4, §5

T27 sequence (Q16539 whole entry T106M): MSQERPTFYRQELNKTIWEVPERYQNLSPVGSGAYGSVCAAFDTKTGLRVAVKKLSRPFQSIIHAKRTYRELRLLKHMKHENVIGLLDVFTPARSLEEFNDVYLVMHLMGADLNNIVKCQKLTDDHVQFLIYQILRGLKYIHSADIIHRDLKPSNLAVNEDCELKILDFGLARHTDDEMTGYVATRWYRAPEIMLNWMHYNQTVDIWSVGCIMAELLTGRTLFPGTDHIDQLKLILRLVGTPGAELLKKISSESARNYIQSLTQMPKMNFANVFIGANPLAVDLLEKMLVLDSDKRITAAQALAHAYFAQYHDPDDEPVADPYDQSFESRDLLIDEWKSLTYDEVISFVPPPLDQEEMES
T1 sequence (O15530 whole entry): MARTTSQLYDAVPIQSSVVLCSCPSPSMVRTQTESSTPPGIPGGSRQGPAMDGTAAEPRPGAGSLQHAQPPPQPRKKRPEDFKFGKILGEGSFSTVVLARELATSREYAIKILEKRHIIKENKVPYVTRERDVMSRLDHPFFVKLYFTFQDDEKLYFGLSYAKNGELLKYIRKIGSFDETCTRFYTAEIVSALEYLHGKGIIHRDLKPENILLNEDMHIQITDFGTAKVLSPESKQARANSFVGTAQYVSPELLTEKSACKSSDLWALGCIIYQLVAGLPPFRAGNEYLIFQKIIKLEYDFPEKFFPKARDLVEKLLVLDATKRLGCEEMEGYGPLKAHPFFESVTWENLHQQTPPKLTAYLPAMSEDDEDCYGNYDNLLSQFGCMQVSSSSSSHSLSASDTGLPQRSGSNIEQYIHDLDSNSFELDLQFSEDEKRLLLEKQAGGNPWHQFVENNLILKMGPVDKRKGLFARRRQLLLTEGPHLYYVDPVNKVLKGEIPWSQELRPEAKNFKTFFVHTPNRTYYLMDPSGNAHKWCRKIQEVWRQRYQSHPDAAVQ
T16 sequence (P06213 28-1382): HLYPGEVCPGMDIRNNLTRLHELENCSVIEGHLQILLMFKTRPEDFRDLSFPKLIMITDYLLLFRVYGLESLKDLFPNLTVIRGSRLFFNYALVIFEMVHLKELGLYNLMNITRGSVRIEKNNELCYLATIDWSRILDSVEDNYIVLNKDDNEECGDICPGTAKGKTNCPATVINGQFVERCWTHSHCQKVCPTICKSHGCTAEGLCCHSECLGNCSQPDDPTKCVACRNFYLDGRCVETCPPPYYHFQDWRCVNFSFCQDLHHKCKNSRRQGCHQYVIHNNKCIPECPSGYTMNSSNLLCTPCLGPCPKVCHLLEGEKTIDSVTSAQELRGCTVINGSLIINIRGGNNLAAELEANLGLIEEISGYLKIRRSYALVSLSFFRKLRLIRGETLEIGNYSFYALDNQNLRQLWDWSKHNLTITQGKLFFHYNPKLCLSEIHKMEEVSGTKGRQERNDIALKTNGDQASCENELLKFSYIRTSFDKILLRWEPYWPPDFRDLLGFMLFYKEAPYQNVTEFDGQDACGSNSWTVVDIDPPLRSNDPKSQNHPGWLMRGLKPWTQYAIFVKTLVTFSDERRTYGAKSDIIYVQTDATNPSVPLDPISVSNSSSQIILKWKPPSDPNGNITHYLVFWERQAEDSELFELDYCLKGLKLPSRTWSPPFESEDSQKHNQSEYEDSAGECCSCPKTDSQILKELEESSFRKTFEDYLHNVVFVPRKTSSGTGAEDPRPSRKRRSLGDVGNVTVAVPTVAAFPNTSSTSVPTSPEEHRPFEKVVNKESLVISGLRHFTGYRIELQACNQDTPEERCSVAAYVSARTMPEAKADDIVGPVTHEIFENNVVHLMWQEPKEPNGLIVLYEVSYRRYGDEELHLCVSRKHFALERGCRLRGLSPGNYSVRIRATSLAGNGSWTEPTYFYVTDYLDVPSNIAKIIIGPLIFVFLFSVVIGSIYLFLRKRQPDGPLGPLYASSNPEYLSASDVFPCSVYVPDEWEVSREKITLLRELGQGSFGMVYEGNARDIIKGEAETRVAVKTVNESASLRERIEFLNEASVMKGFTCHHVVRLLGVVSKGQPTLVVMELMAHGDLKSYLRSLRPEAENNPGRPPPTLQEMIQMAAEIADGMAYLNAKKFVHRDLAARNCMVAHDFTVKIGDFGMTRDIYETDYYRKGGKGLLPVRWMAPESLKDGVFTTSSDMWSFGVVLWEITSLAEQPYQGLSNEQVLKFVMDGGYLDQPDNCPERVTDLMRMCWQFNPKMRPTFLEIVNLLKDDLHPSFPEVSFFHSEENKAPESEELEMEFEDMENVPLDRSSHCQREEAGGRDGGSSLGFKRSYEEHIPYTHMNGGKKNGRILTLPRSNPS
T34 sequence (P51617 whole entry): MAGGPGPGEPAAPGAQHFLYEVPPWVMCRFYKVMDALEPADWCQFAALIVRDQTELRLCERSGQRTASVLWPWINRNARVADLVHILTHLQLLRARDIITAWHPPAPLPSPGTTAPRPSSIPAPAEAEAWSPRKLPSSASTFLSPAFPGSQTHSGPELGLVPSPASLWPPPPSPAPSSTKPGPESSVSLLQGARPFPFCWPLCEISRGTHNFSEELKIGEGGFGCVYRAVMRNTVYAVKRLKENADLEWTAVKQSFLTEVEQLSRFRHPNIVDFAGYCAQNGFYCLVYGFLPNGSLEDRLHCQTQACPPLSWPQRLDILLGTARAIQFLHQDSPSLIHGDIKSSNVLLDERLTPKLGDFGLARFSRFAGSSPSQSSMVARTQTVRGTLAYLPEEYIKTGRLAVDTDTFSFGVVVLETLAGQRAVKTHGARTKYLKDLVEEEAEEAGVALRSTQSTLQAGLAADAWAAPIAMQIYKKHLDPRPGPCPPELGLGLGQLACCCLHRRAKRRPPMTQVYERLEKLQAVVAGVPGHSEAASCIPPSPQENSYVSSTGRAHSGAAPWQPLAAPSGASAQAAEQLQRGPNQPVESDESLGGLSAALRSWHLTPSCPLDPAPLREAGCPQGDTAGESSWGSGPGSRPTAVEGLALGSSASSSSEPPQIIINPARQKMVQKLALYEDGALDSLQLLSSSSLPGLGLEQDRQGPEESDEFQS
T22 sequence (Q99683 whole entry): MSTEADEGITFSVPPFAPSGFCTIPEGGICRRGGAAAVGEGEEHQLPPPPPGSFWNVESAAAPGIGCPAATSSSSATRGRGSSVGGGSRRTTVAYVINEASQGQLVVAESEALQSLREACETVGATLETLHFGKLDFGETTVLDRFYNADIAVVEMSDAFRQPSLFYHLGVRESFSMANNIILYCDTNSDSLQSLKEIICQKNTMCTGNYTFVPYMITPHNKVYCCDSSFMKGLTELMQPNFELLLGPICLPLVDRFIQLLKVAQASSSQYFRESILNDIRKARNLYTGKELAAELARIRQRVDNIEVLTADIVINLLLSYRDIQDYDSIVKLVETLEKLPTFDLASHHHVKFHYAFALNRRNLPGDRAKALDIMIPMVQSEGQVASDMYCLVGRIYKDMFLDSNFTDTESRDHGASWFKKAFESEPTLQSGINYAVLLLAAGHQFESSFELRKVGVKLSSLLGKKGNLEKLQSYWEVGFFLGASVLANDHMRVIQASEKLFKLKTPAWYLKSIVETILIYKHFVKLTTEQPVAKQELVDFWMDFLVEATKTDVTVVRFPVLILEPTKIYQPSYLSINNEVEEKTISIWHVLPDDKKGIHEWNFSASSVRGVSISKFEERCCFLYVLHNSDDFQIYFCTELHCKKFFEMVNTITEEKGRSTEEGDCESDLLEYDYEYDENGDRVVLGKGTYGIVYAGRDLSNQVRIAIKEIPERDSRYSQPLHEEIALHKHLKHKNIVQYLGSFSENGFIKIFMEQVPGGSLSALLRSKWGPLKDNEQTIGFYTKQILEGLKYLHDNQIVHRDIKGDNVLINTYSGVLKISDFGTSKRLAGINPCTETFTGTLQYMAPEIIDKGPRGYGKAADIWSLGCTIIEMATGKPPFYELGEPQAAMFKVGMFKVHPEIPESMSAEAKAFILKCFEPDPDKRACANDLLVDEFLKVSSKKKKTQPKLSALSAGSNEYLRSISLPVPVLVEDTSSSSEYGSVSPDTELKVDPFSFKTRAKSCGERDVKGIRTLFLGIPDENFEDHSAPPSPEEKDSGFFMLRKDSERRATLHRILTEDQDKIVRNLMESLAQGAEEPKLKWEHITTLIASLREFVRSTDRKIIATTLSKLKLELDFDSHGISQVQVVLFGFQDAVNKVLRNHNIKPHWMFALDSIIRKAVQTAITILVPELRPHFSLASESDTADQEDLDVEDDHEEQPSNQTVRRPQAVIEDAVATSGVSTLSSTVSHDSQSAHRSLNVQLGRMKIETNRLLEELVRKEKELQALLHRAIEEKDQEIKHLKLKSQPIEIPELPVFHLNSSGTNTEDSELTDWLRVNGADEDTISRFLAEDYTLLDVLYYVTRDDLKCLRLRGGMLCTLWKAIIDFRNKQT
T23 sequence (P12931 1-530 limits assumed): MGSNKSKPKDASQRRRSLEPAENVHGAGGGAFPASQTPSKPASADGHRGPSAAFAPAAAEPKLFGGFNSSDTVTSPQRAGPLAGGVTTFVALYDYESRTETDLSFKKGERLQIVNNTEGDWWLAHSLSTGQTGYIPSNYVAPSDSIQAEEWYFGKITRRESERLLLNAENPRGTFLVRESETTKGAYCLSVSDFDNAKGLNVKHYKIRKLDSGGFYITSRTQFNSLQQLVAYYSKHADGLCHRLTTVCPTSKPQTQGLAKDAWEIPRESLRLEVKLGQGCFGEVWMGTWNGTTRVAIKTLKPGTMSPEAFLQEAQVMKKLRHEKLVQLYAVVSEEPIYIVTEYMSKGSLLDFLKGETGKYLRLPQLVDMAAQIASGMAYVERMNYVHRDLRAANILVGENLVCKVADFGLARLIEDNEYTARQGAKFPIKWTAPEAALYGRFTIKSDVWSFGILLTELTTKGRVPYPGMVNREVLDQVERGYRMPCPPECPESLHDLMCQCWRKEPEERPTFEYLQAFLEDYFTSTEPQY

- Kinase activity (% of control) (PDK1): 94 % of control
- Kinase activity (% of control) (Itk): 106 % of control
- Kinase activity (% of control) (IGF-1R, activated): 120 % of control
- Kinase activity (% of control) (PKC α): 96 % of control
- Kinase activity (% of control) (cKit): 104 % of control
- Kinase activity (% of control) (MARK1): 89 % of control
- Kinase activity (% of control) (NEK11): 95 % of control
- Kinase activity (% of control) (LKB1): 66 % of control
- Kinase activity (% of control) (GSK3 α): 94 % of control
- Kinase activity (% of control) (FGFR1): 108 % of control
- Kinase activity (% of control) (KDR): 90 % of control
- Kinase activity (% of control) (mTOR/FKBP12): 48 % of control
- Kinase activity (% of control) (BTK): 121 % of control
- Kinase activity (% of control) (ALK): 79 % of control
- Kinase activity (% of control) (Met): 113 % of control
- Kinase activity (% of control) (IR, activated): 111 % of control
- Kinase activity (% of control) (p70S6K): 88 % of control
- Kinase activity (% of control) (CDK1/cyclinB): 97 % of control
- Kinase activity (% of control) (Axl): 106 % of control
- Kinase activity (% of control) (PKA): 106 % of control
- Kinase activity (% of control) (PAK2): 100 % of control
- Kinase activity (% of control) (ASK1): 107 % of control
- Kinase activity (% of control) (Src(1-530)): 99 % of control
- Kinase activity (% of control) (CK1(y)): 64 % of control
- Kinase activity (% of control) (Tie2): 88 % of control
- Kinase activity (% of control) (TrkA): 101 % of control
- Kinase activity (% of control) (DYRK2): 102 % of control
- Kinase activity (% of control) (SAPK2a(T106M)): 102 % of control
- Kinase activity (% of control) (c-RAF): 50 % of control
- Kinase activity (% of control) (PKB α): 87 % of control
- Kinase activity (% of control) (Fyn): 97 % of control
- Kinase activity (% of control) (FAK): 99 % of control
- Kinase activity (% of control) (CHK1): 74 % of control
- Kinase activity (% of control) (EphA1): 99 % of control
- Kinase activity (% of control) (IRAK1): 106 % of control
- Kinase activity (% of control) (AMPK α1): 101 % of control
- Kinase activity (% of control) (Lck activated): 89 % of control
- Kinase activity (% of control) (PDGFR α): 121 % of control
- Kinase activity (% of control) (Pim-1): 88 % of control
- Kinase activity (% of control) (PEK): 105 % of control
- Kinase activity (% of control) (ROCK-I): 93 % of control
SMILES: O=C(N1CCCC1)N1CCC(n2cnc3c(-n4c(C(F)F)nc5ccccc54)nc(N4CCOCC4)nc32)CC1 [X-370]
